Key:
[1] = tested on: hot plate test in mice; assay: Hot plate test; assay type: in vivo, mouse (Kunming); conditions: 5 mg/kg i.p., baseline about 10 s, n = 6
Protocol: (§1) Figure 6 Effects of JZTX-34 on pain. (A) Effects of JZTX-34 on the early phase (0–5 min) and late phase (15–30 min) of formalin-induced paw licking response in mice. (B) Effects of JZTX-34 on the acetic acid-induced writhing response in mice. (C)Effects of JZTX-34 on the hot plate test in mice.
Mice with a latency time about 10 s were selected for the hot plate test. […] After administration of test samples, the latency time was recorded at the time points of 30 min, 60 min, 120 min, and 180 min (Figure 6C). Negative control animals received the same volume of vehicle.
(§2) The synthesized JZTX-34 was obtained according to the procedure as previously described. […] Rats (Sprague-Dawley) and Kunming mice were maintained in the Laboratory of Protein Chemistry of Hunan Normal University. All of the experimental involving animals were approved by the Animal Care and Use Committee of Hunan Normal University (2016-273, 13 October 2016).
Mice were put on a hot plate apparatus (model HZ66-ZH-YLS-6B, Shanghai, China) in order to test response time to a thermal stimulus. The responses time of mice at about 10 s was selected for the test. […] Hind paw licking or jumping were regarded as a sign to avoid heat nociception.
(§3) Data from Axon 700B patch clamp were analyzed by Clampfit10.0 (Molecular Devices, Sunnyvale, CA, USA). Dose-response curves were fitted by the Hill logistic equation: y = 1 − (1 − fmax)/[…]. In this equation, n stands an empirical Hill coefficient and fmax is the fraction of current resistant to inhibition at high toxin (Tx) concentration. The G-V curves were obtained by calculating the conductance (G) at each voltage (V) using the equation G = I/(V1 − Vrev), with Vrev being the reversal potential determined for each cell individually. G-V curves were fitted using a Boltzmann equation—y = 1/(1 + exp[(Va − V)/κ])—in which Va, V, and κ represent midpoint voltage of kinetics, test potential, and slope factor, respectively. […] Statistical significance was calculated using Student’s t-test and was defined as p < 0.05.

[2] = tested on: formalin-induced paw licking response in mice; assay: Formalin-induced paw licking; assay type: in vivo, mouse (Kunming); conditions: 5 mg/kg i.p., n = 6
Protocol: Since Nav1.7 plays an important role in pain, the analgesic effects of JZTX-34 were examined in three animal models (formalin-induced paw licking, acetic acid-induced writhing, and hot plate). Intraplantar injection of formalin causes pain and can be divided into two phases. The early phase was neurogenic pain and usually occurred within […]), and the late phase was inflammatory pain lasting from 15 to 30 min).
as §1, §2
Formalin test was performed according to the method described previously. […] After test samples were intraperitoneally (i.p.) injected, 5% formalin (20 μL) was injected to the plantar surface of right hind paw. The time spent licking the injected paw was counted every 5 min. Phase I was defined as 0–10 min, and Phase II defined as […].
as §3

[3] = tested on: Nav1.7; conditions: cited from earlier work; for potency on Nav1.7 (literature): ref [14],[15]
Text: Chronic pain is one of the most difficult clinical problems. As Nav1.7 is considered one of the most attractive targets for relieving chronic pain, scientist have paid a lot of effort to look for a selective inhibitor of Nav1.7. Several small molecules with selectivity on Nav1.7 are currently undergoing clinical development, including PF-05089771 (Pfizer, New York, NY, USA) and CNV1014802 (Convergence Pharmaceuticals, London , UK). Compared to small molecules, peptide toxins have better subtype selectivity due to their larger pharmacophore. Spider venoms are a rich source of ion ch ... || Many peptide toxins, which alter gating properties of VGSCs, have been identified to trap the DIIS3-S4 linker of sodium channels. However, the molecular mechanisms of inhibition of sodium currents by peptide toxins are greatly divergent. […] Pro ...

[4] = tested on: other sodium channel subtypes; conditions: literature statement, no reference given; cited from earlier work
[5] = tested on: inflammatory pain and neuropathic pain; conditions: cited from earlier work
[6] = tested on: C-fiber compound action potential; design: method as in PMID 28045073; conditions: desheathed cutaneous nerves; ref [27]; cited from earlier work

Compound	hot plate latency ([1]; 30 min)	hot plate latency ([1]; 60 min)	paw licking time, early phase ([2]; control 145.5 s)	paw licking time, late phase ([2]; control 414.5 s)	potency on Nav1.7 (literature) [3]	effect on channel gating (HWTX-IV, literature) ([3]; ref [25])	activity on other sodium channel subtypes [4]	relief of acute inflammatory and chronic neuropathic pain ([5]; ref [28])	effect on channel gating (ProTx-II, literature) ([3]; ref [26])	C-fiber compound action potential [6]	analgesic effect on severe pain ([5]; ref [27])
CN1CC[C@]23c4c5ccc(O)c4O[C@H]2[C@@H](O)C=C[C@H]3[C@H]1C5 [morphine, reference compound]	24.8	12.2 s	35.3 s	265 s	–	–	–	–	–	–	–
HWTX-IV	–	–	–	–	very potent Nav1.7 blockers	without affecting activation or inactivation of channels	also show activity on other sodium channel subtypes	efficiently eased the acute inflammatory pain and chronic neuropathic pain	–	–	–
ProTx-II	–	–	–	–	very potent Nav1.7 blockers	–	also show activity on other sodium channel subtypes	–	modified the voltage dependence of VGSC inactivation	completely blocked the C-fiber compound action potential	exerted a strong analgesic effect on severe pain

— publication PMC5848165 (Toxins, 2018)
